The target in experiment [1] is NR1/NR2B (Homo sapiens (Human), UniProt Q13224). Put plainly: Cell assay: FDSS Ca2+ influx inhibition in HEK293 cells expressing NR1/NR2B.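 Further: Fluo-8 Ca2+ signal read on Hamamatsu FDSS 6000 after glutamate, glycine and Ca2+ challenge following 10 min compound preincubation, end/baseline fluorescence ratio compared with MK801 control.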 As to conditions: HEK293 cells expressing NR1/NR2B, Ca2+ influx.
Experimental: (§1) Cell Culture and plating: HEK293 cells expressing NR1/NR2B (Chantest, Cleveland, Ohio) were grown to 70-80% confluency as an adherent monolayer in standard tissue culture flasks at 37° C., 5% CO2 per supplier's instructions. NR2B expression was induced by incubation with 0.3-0.4 μg/ml tetracycline in the presence of 4 mM ARL-15896 for 18-24 hours under the same growth conditions, then transferred to 30° C. for another 3-5 hours.
(§2) After induction, cell culture medium was removed and cells were rinsed once with Ca^2+ and Mg^2+-free Dulbecco's phosphate buffered saline. Cells were then removed from the flask using TrypLE™ Express (Life Technologies) according to the manufacturer's instructions and collected to 50 ml centrifuge tubes. Following two washes in Ca^2+/Mg^2+-free HBSS with 20 mM HEPES (HHnoCa), cells were counted and viability assessed using trypan blue. To load cells with Ca^2+-sensitive dye, they were resuspended in fluo-8 plus Component B (AAT Bioquest Products) diluted in HHnoCa and incubated 15 minutes at 37° C., followed by 30 minutes at room temp (in dark). Cells were then washed and resuspended in HHnoCa to remove extracellular dye and plated in 384-well plates (Falcon, uncoated) at 20,000-30,000 cells/well in a final volume of 25 μl/well.
(§3) FDSS Assay: To each well of the plate, 10 μL test compound, control (MK801) or HHnoCa buffer was added to a final concentration of 10 μM with a final concentration of DMSO of 0.1%. Following 10 minutes pre-incubation in the dark, plates are loaded onto the Hamamatsu FDSS 6000. After collecting baseline fluorescence images, 3 μM glutamate, 3 glycine, and 1 mM Ca^2+ in HHnoCa buffer is added to each well, and Ca^2+ is recorded for 3 minutes. Data were processed by computing ratio of fluorescence at the end of data collection to baseline fluorescence to assess degree of Ca′ influx inhibition relative to that observed in MK801.
The target in experiment [2] is NR1/NR2B (Homo sapiens (Human), UniProt Q05586+Q13224). The experiment is described as above.
Sequence of NR1/NR2B (Homo sapiens (Human), UniProt Q05586+Q13224) (Q13224 27-1484, other chains not shown): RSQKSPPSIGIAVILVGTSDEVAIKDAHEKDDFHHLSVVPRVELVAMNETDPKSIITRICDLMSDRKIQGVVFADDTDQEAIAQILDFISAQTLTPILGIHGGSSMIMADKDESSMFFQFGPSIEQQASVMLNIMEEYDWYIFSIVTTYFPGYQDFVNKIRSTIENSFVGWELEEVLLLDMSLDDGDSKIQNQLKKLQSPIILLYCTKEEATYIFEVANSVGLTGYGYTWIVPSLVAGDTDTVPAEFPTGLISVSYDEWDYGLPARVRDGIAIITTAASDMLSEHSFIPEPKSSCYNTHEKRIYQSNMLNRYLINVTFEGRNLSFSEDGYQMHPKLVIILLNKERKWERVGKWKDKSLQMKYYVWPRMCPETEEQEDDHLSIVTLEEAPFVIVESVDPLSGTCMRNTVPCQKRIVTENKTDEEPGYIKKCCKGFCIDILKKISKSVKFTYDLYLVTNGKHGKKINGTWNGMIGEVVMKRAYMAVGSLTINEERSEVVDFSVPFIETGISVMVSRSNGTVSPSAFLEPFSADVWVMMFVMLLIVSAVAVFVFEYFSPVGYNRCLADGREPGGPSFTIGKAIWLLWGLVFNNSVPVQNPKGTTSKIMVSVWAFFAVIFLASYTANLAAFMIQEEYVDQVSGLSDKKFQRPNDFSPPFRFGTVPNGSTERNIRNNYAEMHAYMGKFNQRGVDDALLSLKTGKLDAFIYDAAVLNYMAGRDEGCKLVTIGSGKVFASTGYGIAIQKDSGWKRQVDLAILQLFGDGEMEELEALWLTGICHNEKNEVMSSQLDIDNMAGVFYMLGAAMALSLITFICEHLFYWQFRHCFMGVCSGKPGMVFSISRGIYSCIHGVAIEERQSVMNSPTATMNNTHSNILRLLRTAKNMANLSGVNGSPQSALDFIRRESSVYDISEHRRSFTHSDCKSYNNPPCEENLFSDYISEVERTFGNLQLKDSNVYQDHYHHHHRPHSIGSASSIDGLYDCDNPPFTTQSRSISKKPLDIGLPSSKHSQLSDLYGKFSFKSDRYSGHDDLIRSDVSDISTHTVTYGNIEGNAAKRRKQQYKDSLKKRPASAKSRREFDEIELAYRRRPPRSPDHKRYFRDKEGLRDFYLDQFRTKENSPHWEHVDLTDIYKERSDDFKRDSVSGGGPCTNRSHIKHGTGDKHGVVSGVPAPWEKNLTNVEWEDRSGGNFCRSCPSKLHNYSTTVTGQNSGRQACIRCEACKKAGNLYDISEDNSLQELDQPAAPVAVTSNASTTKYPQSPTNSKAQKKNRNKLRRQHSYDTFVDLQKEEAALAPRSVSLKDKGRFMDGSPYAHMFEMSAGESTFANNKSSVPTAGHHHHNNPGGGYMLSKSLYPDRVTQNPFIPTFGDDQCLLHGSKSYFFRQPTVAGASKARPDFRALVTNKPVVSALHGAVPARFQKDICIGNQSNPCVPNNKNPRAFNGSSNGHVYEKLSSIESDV
Experimental: as §1, §2, §3
Where [3] appears, read: NR2B NAM IC50, HEK293 cells expressing NR1/NR2B, Ca2+ influx.
Setting [4] is: Binned Activity, HEK293 cells expressing NR1/NR2B, Ca2+ influx, binned NR2B NAM IC50.

Where two headings read alike, the source gives them in different places.

Sequence of NR1/NR2B (Homo sapiens (Human), UniProt Q13224) (Q13224 27-1484, other chains not shown): as above

With `O=C(CN1CC2CC(O)(c3ccccc3)CC2C1)c1ccccc1` (stereo not drawn) [Example 57, 2-(5-hydroxy-5-phenylhexahydrocyclo-penta[c]pyrrol-2(1H)-yl)-1-phenylethanone], the IC50 at NR1/NR2B [1] (read-out: Binned Activity, binned NR2B NAM IC50) was above 10000 nM; at NR1/NR2B [1] (read-out: NR2B NAM IC50), 10000 nM.
Take `CO[C@@]1(Cc2ccccc2)C[C@H]2CN(CC(O)c3ccc(O)c(F)n3)C[C@H]2C1` (mixture of isomers) [Example 198, rac-6-(2-((3aR,5r,6aS)-5-benzyl-5-methoxyhexahydrocyclo-penta[c]pyrrol-2(1H)-yl)-1-hydroxyethyl)-2-fluoropyridin-3-ol]: the IC50 against NR1/NR2B [2] (setting [3]) was 476 nM.
Turning to `Oc1ccc(C(O)CN2C[C@@H]3C[C@@](O)(Cc4ccc(F)cc4)C[C@@H]3C2)cc1` (mixture of isomers) [Example 135, rac-(3aR,5r,6aS)-5-(4-fluorobenzyl)-2-(2-hydroxy-2-(4-hy-droxyphenyl)ethyl)octa-hydrocyclopenta[c]pyrrol-5-ol], the IC50 against NR1/NR2B [2] (setting [3]) stood at 27.1 nM.
Take `Cc1ccccc1[C@]1(O)C[C@H]2CN(C(C)C(O)c3ccc(O)cc3)C[C@H]2C1` (mixture of isomers) [Example 95, rac-2-[1-hydroxy-1-(4-hydroxyphenyl)propan-2-yl]-5-(2-methylphenyl)-octahydrocyclopenta[c] pyrrol-5-ol]: the figures for the IC50 against NR1/NR2B [2] (setting [4]) and at NR1/NR2B [2] (setting [3]) were above 10000 nM and at least 10000 nM, respectively.
On the same counts, the results for `Oc1ccc(C(O)CN2C[C@@H]3C[C@@](O)(c4cccnc4F)C[C@@H]3C2)nc1` (mixture of isomers) [Example 251, rac-(3aR,6aS)-5-(2-fluoropyridin-3-yl)-2-(2-hydroxy-2-(5-hydroxypyridin-2-yl)ethyl)octahydrocyclo-penta[c]pyrrol-5-ol] are above 10000 nM and at least 10000 nM.
With `Oc1ccc(C(O)CN2C[C@@H]3C[C@@](O)(Cc4ccccc4)C[C@@H]3C2)cn1` (mixture of isomers) [Example 181, rac-5-{2-[(3aR,5R,6aS)-5-benzyl-5-hydroxy-octahydrocyclopenta[c]pyrrol-2-yl]-1-hydroxyethyl}pyridin-2-ol], the IC50 against NR1/NR2B [2] (setting [4]) is above 10000 nM; against NR1/NR2B [2] (setting [3]), at least 10000 nM.
Take `COc1ccc(C[C@]2(O)C[C@H]3CN(CC(O)c4ccc(O)cc4)C[C@H]3C2)cc1` (mixture of isomers) [Example 189, rac-(3aR,5r,6aS)-2-(2-hydroxy-2-(4-hydroxyphenyl)ethyl)-5-(4-methoxy-benzyl)octahydro-cyclopenta[c]pyrrol-5-ol]: the IC50 at NR1/NR2B [2] (setting [3]) came to 47.4 nM.
`Oc1ccc(C(O)CN2C[C@@H]3C[C@@](O)(Cc4ccccc4F)C[C@@H]3C2)nc1` (mixture of isomers) [Example 228, rac-5-(2-fluorobenzyl)-2-(2-hydroxy-2-(5-hydroxypyridin-2-yl)ethyl)octahydrocyclo-penta[c]pyrrol-5-olyl)ethanone]: the values for the IC50 at NR1/NR2B [2] (setting [4]) and against NR1/NR2B [2] (setting [3]) were below 100 nM and 40.9 nM, respectively.
`Oc1ccc(C(O)CN2C[C@@H]3C[C@@](O)(CC4CC4)C[C@@H]3C2)cc1` (mixture of isomers) [Example 211, rac-(3aR,5r,6aS)-5-(cyclopropylmethyl)-2-(2-hydroxy-2-(4-hydroxyphenyl)ethyl) octahydrocyclopenta [c]pyrrol-5-ol]: the IC50 against NR1/NR2B [2] (setting [4]) is above 10000 nM; against NR1/NR2B [2] (setting [3]), at least 10000 nM.
For the compound `CC(C)(O)c1ccc(C(O)CN2C[C@@H]3C[C@@](O)(c4ccccc4)C[C@@H]3C2)cc1` (mixture of isomers) [Example 69, rac-2-(2-hydroxy-2-(4-(2-hydroxypropan-2-yl)phenyl)ethyl)-5-phenyloctahydrocyclo-penta[c]pyrrol-5-ol], the IC50 on NR1/NR2B [2] (setting [4]) was above 10000 nM; at NR1/NR2B [2] (setting [3]), at least 10000 nM.
On NR1/NR2B [2] (setting [3]), `CC(=O)Nc1ccc(C(O)CN2C[C@@H]3C[C@@](O)(Cc4ccccc4)C[C@@H]3C2)cc1` (mixture of isomers) [Example 149, rac-N-(4-(2-((3aR,5r,6aS)-5-benzyl-5-hydroxyhexahydrocyclo-penta[c]pyrrol-2(1H)-yl)-1-hydroxyethyl)phenyl)acet-amide] gave an IC50 of 2310 nM.
Consider `CC(C(=O)c1ccc(O)cc1)N1C[C@H]2CC(CCc3ccccc3)C[C@H]2C1` (mixture of isomers) [Example 322, rac-1-(4-hydroxy-phenyl)2-[(5R)-5-(2-phenylethyl)-octahydrocyclopenta[c]pyrrol-2-yl]propan-1-one], for which the IC50 against NR1/NR2B [2] (Binned Activity) was 100 to 1000 nM; against NR1/NR2B [2] (NR2B NAM IC50), 533 nM.
For `C[C@@H](NC(=O)N1C[C@@H]2C[C@@](O)(c3ccccc3)C[C@@H]2C1)c1ccc(Cl)cc1` [Example 20, N-[(1R)-1-(4-chlorophenyl)ethyl]-5-hydroxy-5-phenyl-octahydrocyclopenta[c] pyrrole-2-carboxamide], on NR1/NR2B [2] (setting [4]), the IC50 was above 10000 nM.
As to `COc1cccc([C@]2(O)C[C@H]3CN(CC(O)c4ccccc4)C[C@H]3C2)c1` (mixture of isomers) [Example 60, rac-2-(2-hydroxy-2-phenylethyl)-5-(3-methoxyphenyl)-octahydrocyclopenta[c] pyrrol-5-ol], the IC50 at NR1/NR2B [2] (setting [4]) was above 10000 nM; on NR1/NR2B [2] (setting [3]), at least 10000 nM.
With `N#Cc1cccc(NC(=O)N2C[C@@H]3C[C@@](O)(c4ccc(F)cc4)C[C@@H]3C2)c1` [Example 40], the IC50 against NR1/NR2B [2] (setting [4]) was above 10000 nM.
On to `Oc1ccc(C(O)CN2C[C@@H]3C[C@@](O)(Cc4ccc(Cl)cc4)C[C@@H]3C2)nc1` (mixture of isomers) [Example 223, rac-(3aR,5r,6aS)-5-(4-chlorobenzyl)-2-(2-hydroxy-2-(5-hydroxypyridin-2-yl)ethyl)octahydrocyclo-penta[c]pyrrol-5-ol], for which the IC50 on NR1/NR2B [2] (setting [4]) is below 100 nM; against NR1/NR2B [2] (setting [3]), 11.5 nM.
On the same counts, the results for `Oc1ccc(C(O)CN2C[C@@H]3C[C@@](O)(Cc4ccccc4F)C[C@@H]3C2)cc1` (mixture of isomers) [Example 229, rac-(3aR,5r,6aS)-5-(2-fluorobenzyl)-2-(2-hydroxy-2-(4-hy-droxyphenyl)ethyl)octa-hydrocyclopenta[c] pyrrol-5-ol] are below 100 nM and 15.5 nM.
On the same counts, the results for `OC(CN1C[C@@H]2C[C@@](O)(Cc3ccccc3)C[C@@H]2C1)c1ccc2[nH]nnc2c1` (mixture of isomers) [Example 186, rac-(3aR,5R,6aS)-2-[2-(1H-1,2,3-benzotriazol-5-yl)-2-hydroxyethyl]-5-benzyl-octahydrocyclopenta[c] pyrrol-5-ol] are 100 to 1000 nM and 748 nM.
On to `Oc1ccc(C(O)CN2C[C@@H]3C[C@@](O)(Cc4cccs4)C[C@@H]3C2)cc1` (mixture of isomers) [Example 204, rac-(3aR,5r,6aS)-2-(2-hydroxy-2-(4-hydroxyphenyl)ethyl)-5-(thiophen-2-ylmethyl)octahydrocyclo-penta[c]pyrrol-5-ol], for which the IC50 against NR1/NR2B [2] (setting [3]) worked out at 12.6 nM.
Turning to `Oc1ccc(C(O)CN2C[C@@H]3C[C@@](O)(Cc4ccccc4)C[C@@H]3C2)nc1` (mixture of isomers) [Example 144, rac-(3aR,5r,6aS)-5-benzyl-2-(2-hydroxy-2-(5-hydroxypyridin-2-yl)ethyl)octahydrocyclo-penta[c]pyrrol-5-ol], the figures for the IC50 against NR1/NR2B [2] (setting [4]) and against NR1/NR2B [2] (setting [3]) were below 100 nM and 26.8 nM, respectively.
Consider `COc1cccc([C@]2(O)C[C@H]3CN(CC(O)c4ccc(Cl)cc4Cl)C[C@H]3C2)c1` (mixture of isomers) [Example 74, rac-2-[2-(2,4-dichlorophenyl)-2-hydroxyethyl]-5-(3-methoxyphenyl)-octahydrocyclopenta[c] pyrrol-5-ol], for which the IC50 was above 10000 nM on NR1/NR2B [2] (setting [4]) and at least 10000 nM against NR1/NR2B [2] (setting [3]).
`O=C1Cc2cc(C(O)CN3C[C@@H]4C[C@@](O)(Cc5ccccc5)C[C@@H]4C3)ccc2N1` (mixture of isomers) [Example 152, rac-5-(2-((3aR,5r,6aS)-5-benzyl-5-hydroxyhexahydrocyclo-penta[c]pyrrol-2(1H)-yl)-1-hydroxyethyl)indolin-2-one] displayed an IC50 against NR1/NR2B [2] (setting [3]) of 143 nM.
Take `COc1cccc([C@]2(O)C[C@H]3CN(C(=O)Nc4cccnc4)C[C@H]3C2)c1` [Cmpd 46, 5-hydroxy-5-(3-methoxyphenyl)-N-(pyridin-3-yl)-octahydrocyclopenta[c] pyrrole-2-carboxamide]: the IC50 on NR1/NR2B [2] (setting [4]) was above 10000 nM.
On to `Oc1ccc(C(O)CN2C[C@@H]3C[C@@](O)(CCc4ccccc4)C[C@@H]3C2)cc1` (mixture of isomers) [Example 321, rac-2-(2-hydroxy-2-(4-hydroxyphenyl)ethyl)-5-phenethyloctahydro-cyclopenta[c] pyrrol-5-ol], for which the IC50 at NR1/NR2B [2] (setting [4]) was above 10000 nM; on NR1/NR2B [2] (setting [3]), at least 10000 nM.
Regarding `O=C(Nc1cccc(C(F)(F)F)c1)N1C[C@@H]2C[C@@](O)(c3ccc(F)cc3)C[C@@H]2C1` [Example 38], the IC50 on NR1/NR2B [2] (setting [4]) is above 10000 nM; on NR1/NR2B [2] (setting [3]), at least 10000 nM.
`CC(C(=O)c1ccc(O)cc1)N1C[C@@H]2C[C@](F)(Cc3ccccc3)C[C@@H]2C1` (mixture of isomers) [Example 317, rac-2-((3aR,5s,6aS)-5-benzyl-5-fluoro-hexahydrocyclopen-ta[c]pyrrol-2(1H)-yl)-1-(4-hydroxyphenyl)propan-1-one] gave an IC50 on NR1/NR2B [2] (setting [3]) of 284 nM.
Regarding `COc1cccc(NC(=O)N2C[C@@H]3C[C@@](O)(c4ccccc4)C[C@@H]3C2)c1` [Example 7], the figures for the IC50 against NR1/NR2B [2] (setting [4]) and against NR1/NR2B [2] (setting [3]) were above 10000 nM and at least 10000 nM, respectively.
`Oc1ccc(C(O)CN2C[C@@H]3C[C@@](O)(Cc4cccc(F)c4F)C[C@@H]3C2)nc1` (mixture of isomers) [Example 248, rac-(3aR,5r,6aS)-5-(2,3-difluorobenzyl)-2-(2-hydroxy-2-(5-hydroxypyridin-2-yl)ethyl)octahydrocyclo-penta[c]pyrrol-5-ol] registered an IC50 against NR1/NR2B [2] (setting [3]) of 47.6 nM.
`COc1ccccc1CNC(=O)N1C[C@@H]2C[C@@](O)(c3ccccc3)C[C@@H]2C1` [Example 21, 5-hydroxy-N-[(2-methoxyphenyl)methyl]-5-phenyl-octahydrocyclopenta[c] pyrrole-2-carboxamide] gave an IC50 at NR1/NR2B [2] (setting [4]) above 10000 nM.
As to `Oc1ccc(C(O)CN2C[C@H]3C[C@H](Cc4ccccc4)C[C@H]3C2)cc1` (mixture of isomers) [Example 306, rac-4-{2-[(3aR,5R,6aS)-5-benzyl-octahydrocyclopenta[c]pyrrol-2-yl]-1-hydroxyethyl}phenol], the figures for the IC50 at NR1/NR2B [2] (setting [4]) and against NR1/NR2B [2] (setting [3]) were below 100 nM and 11.7 nM, respectively.

These data come from patent US10052306B2 (LUC THERAPEUTICS, INC., priority 2013, dated 2018).
